Measured values from US20150265633A1, “STEROID CONTAINING DRUG DELIVERY SYSTEM” (Allergan, Inc., priority 2007, published 2015).
Values after ≈ are worked out from the molar mass of the structure shown.

Experiments:
Water solubility = assay type: physicochemical
[1] = Lipophilicity (log P, octanol/water partition coefficient)
Text: Log P is the lipophilicity coefficient, where P is the octonol/water partition coefficient.

[2] = system: VEGF-induced BRB and BAB breakdown in rabbit eye; assay: Rabbit model of VEGF-induced BRB and BAB breakdown, scanning ocular fluorophotometry, aqueous steroid suspensions (Example 1); assay type: in vivo; settings: for inhibition of VEGF-induced BAB breakdown (iris leakage, anterior segment) / inhibition of VEGF-induced BRB breakdown (retinal leakage, posterior segment): 1 mg (100 μl of 10 mg/ml suspension) intravitreal, VEGF one month thereafter, fluorophotometry 48 hrs after VEGF; for block of VEGF-induced BAB breakdown (iris leakage) / block of VEGF-induced BRB breakdown (retinal leakage): rabbit, corticosteroid administered systemically or intravitreally
Procedure: An in vivo (rabbit eye) experiment was carried out with liquid glucocorticoid derivative formulations. Recombinant vascular endothelial growth factor (VEGF) was obtained from a supplier (R&D Systems). Female Dutch Belt rabbits were anaesthetized with isoflurane inhalation and topical 0.5% proparacaine hydrochloride, and intravitreal injection of one eye with 500 ng VEGF in sterile phosphate buffered saline (PBS) containing 0.1% bovine serum albumin was performed using a 28 gauge ½ inch needle. The other eye is given the same volume of the vehicle, without the VEGF.
The extent of VEGF-induced BRB and BAB breakdown of the blood retinal barrier and the blood aqueous barrier was measured by scanning ocular fluorophotemetry (Fluorotron Master, Ocumetrics Inc.); at various times following intravitreal injection. In this model a fluorescent label is administered intravenously, following by determination of the amount of fluorescenin in the anterior and posterior segment and an indication of iridial and retinal leakage, respectively.
VEGF injection mimics this pathological condition.
Sodium fluorescein in 1 ml saline was injected via the marginal ear vein at a concentration of 50 mg/kg, and ocular fluorescein levels in the vitreoretinal chamber and the anterior chamber was determined 50 minutes later.
Ten milligrams of each compound is added to 1 ml of sterile phosphate-buffered saline (PBS; ph 7.4). At day 0, 100 μl of a 10 mg/ml suspension of each steroid is injected into the vitreous of a rabbit eye. The PBS vehicle is injected into the other eye. VEGF is then injected at a pre-determined time (one month) thereafter, and BRB and BAB breakdown were measured by scanning ocular fluorophotometry 48 hrs later as described in Edelman et al., EXP.

[3] = system: wet age-related macular degeneration; assay: Treatment of ARMD with a viscous GD formulation (Example 5); assay type: in vivo, human; settings: intravitreal 100 μl hyaluronic acid solution with about 1000 μg crystals in suspension
Procedure: A person with wet age-related macular degeneration is treated with an intravitreal injection of 100 μl of a hyaluronic acid solution containing about 1000 μg of fluticasone propionate crystals in suspension.

cystic macular edema = assay: Treatment of macular edema with a solid GD implant (Example 4); assay type: in vivo, human
Procedure: A person diagnosed with cystic macular edema treated by administration of a biodegradable drug delivery system administered to each eye of the patient. […] A similar implant is administered subconjunctivally to the patient's right eye. […] No increase in intraocular pressure is seen one week after administration.

[4] = after about 3 months from the surgery, 2 mg PLGA implant with about 1000 μg drug
[5] = 500 ng VEGF intravitreal, 48 hours after injection, 50 minutes after fluorescein

Compound	Lipophicity (log P) [1]	logP [1]	inhibition of VEGF-induced BAB breakdown (iris leakage, anterior segment) ([2]; rabbit eye)	inhibition of VEGF-induced BRB breakdown (retinal leakage, posterior segment) ([2]; rabbit eye)	block of VEGF-induced BAB breakdown (iris leakage) [2]	block of VEGF-induced BRB breakdown (retinal leakage) [2]	other results
CC1(C)O[C@@H]2C[C@H]3[C@@H]4CCC5=CC(=O)C=C[C@]5(C)[C@@]4(F)[C@@H](O)C[C@]3(C)[C@]2(C(=O)CO)O1 [Triamcinolone acetonide]	–	–	completely inhibited	completely inhibited	completely blocked	completely blocked	Water Solubility (Water solubility): 21 µg/mL; logP ([1]; octanol/water): 2.53
CCC(=O)O[C@]1(C(=O)SCF)[C@H](C)C[C@H]2[C@@H]3C[C@H](F)C4=CC(=O)C=C[C@]4(C)[C@@]3(F)[C@@H](O)C[C@@]21C [Fluticasone propionate]	4.20	4.2	no effect	completely blocks	–	–	solubility (Water solubility; water): 0.14 µg/mL (≈ 0.28 µM); quality of life reported by patient [3]: overall improvement; rate of neovascularization and related inflammation ([3]; within one month): acceptable reduction
C[C@H]1C[C@H]2[C@@H]3CCC4=CC(=O)C=C[C@]4(C)[C@@]3(Cl)[C@@H](O)C[C@]2(C)[C@@]1(O)C(=O)CO [beclomethasone]	–	–	inhibited	inhibited	completely blocked	completely blocked	–
VEGF	–	–	–	–	–	–	increase in fluorescein contained in the aqueous (BAB breakdown) compared to normal untreated rabbit eyes [2, 5]: approximately 6 fold; increase in fluorescein contained in the vitreous (BRB breakdown) compared to normal untreated rabbit eyes [2, 5]: approximately 18 fold

Further lines, with some results ahead:

Lipophicity (log P) [1]	logP [1]	Compound	inhibition of VEGF-induced BAB breakdown (iris leakage, anterior segment) ([2]; rabbit eye)	inhibition of VEGF-induced BRB breakdown (retinal leakage, posterior segment) ([2]; rabbit eye)	block of VEGF-induced BAB breakdown (iris leakage) [2]	block of VEGF-induced BRB breakdown (retinal leakage) [2]	other results
1.95	1.95	C[C@@H]1C[C@H]2[C@@H]3CCC4=CC(=O)C=C[C@]4(C)[C@@]3(F)[C@@H](O)C[C@]2(C)[C@@]1(O)C(=O)CO [Dexamethasone]	–	–	–	–	–
4.40	4.4	CCC(=O)OCC(=O)[C@@]1(OC(=O)CC)[C@@H](C)C[C@H]2[C@@H]3CCC4=CC(=O)C=C[C@]4(C)[C@@]3(Cl)[C@@H](O)C[C@@]21C [Beclomethasone dipropionate, beclomethasone 17,21-dipropionate]	no effect	completely blocks	–	–	duration of complete inhibition of VEGF-mediated responses ([2]; rabbit eye, 100 μl of 10 mg/ml intravitreal): greater than 3 months; appearance of the retina (cystic macular edema; [4]): appears normal; degeneration of the optic nerve (cystic macular edema; [4]): appears to be reduced; increase in intraocular pressure (cystic macular edema; one week after administration, 2 mg PLGA implant with about 1000 μg drug): No increase; reduction in retinal thickness (cystic macular edema; right eye (implant subconjunctival) versus left eye (intravitreal), 2 mg implant, about 1000 μg PLGA and about 1000 μg drug): more rapid reduction
